In the supplement of paper PMC10307832:

Columns and labels:
Assay in all cases: relative viability (nuclei count vs DMSO), 5 days (fraction); higher = more cells survive
[1] = compound: COc1cc(N2CCC(N3CCN(C)CC3)CC2)ccc1Nc1ncc(Cl)c(Nc2ccccc2S(=O)(=O)C(C)C)n1 [NVP-TAE684] + CC(C)C[C@H](NC(=O)[C@H](Cc1ccccc1)NC(=O)c1cnccn1)B(O)O [Bortezomib] (partner 0.002 µM)
Method in brief: (§1)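 Nuclei were stained with Hoechst during a one-step fixation (final 0.05% Triton X-100, 1% formaldehyde, 1 ug/ml Hoechst) carried out 5 days after dosing, then counted on 4× images. The cells, lung cancer lines in 1536-well plates, had been dosed by pin tool the day after seeding with one drug alone or a fixed anchor-drug dose plus five library-drug doses (not always all listed) in √10 steps. Relative viability is the nuclei count in treated wells divided by that in vehicle wells, and each value is the median of duplicate plates.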

[2] = compound: C1=CC=C2C(=C1)N=C(S2)C(C#N)C3=NC(=NC=C3)NCCC4=CN=CC=C4 + N=C(N)NC(=N)NCCc1ccccc1 [Phenformin] (partner 250 µM)
Method in brief: as §1

[3] = compound: COc1cc(N2CCC(N3CCN(C)CC3)CC2)ccc1Nc1ncc(Cl)c(Nc2ccccc2S(=O)(=O)C(C)C)n1 [NVP-TAE684] + C[C@@H](Oc1cc(-c2cnn(C3CCNCC3)c2)cnc1N)c1c(Cl)ccc(F)c1Cl [Crizotinib] (partner 1 µM)
Method in brief: as §1

[4] = compound: COc1cc2/c(=N/c3ccc(Br)cc3F)nc[nH]c2cc1OCC1CCN(C)CC1 [Vandetanib] + CC(C)C[C@H](NC(=O)[C@H](Cc1ccccc1)NC(=O)c1cnccn1)B(O)O [Bortezomib] (partner 0.002 µM)
Method in brief: as §1

[5] = compound: COc1cc(N2CCC(N3CCN(C)CC3)CC2)ccc1Nc1ncc(Cl)c(Nc2ccccc2S(=O)(=O)C(C)C)n1 [NVP-TAE684] + Cc1nc(NC(=O)N2CCC[C@H]2C(N)=O)sc1-c1ccnc(C(C)(C)C(F)(F)F)c1 [Alpelisib] (partner 2 µM)
Method in brief: as §1

Cell Line	relative viability ([1]; first compound 0.2 µM)	relative viability ([1]; first compound 0.6325 µM)	relative viability ([1]; first compound 2 µM)	relative viability ([2]; first compound 0.005 µM)	relative viability ([2]; first compound 0.01581 µM)	relative viability ([2]; first compound 0.05 µM)	relative viability ([2]; first compound 0.1581 µM)	relative viability ([2]; first compound 0.5 µM)	relative viability ([3]; first compound 0.2 µM)	relative viability ([3]; first compound 2 µM)	relative viability ([4]; first compound 0.02 µM)	relative viability ([4]; first compound 0.06325 µM)	relative viability ([4]; first compound 0.2 µM)	relative viability ([4]; first compound 0.6325 µM)	relative viability ([4]; first compound 2 µM)	relative viability ([5]; first compound 0.2 µM)	relative viability ([5]; first compound 0.6325 µM)	relative viability ([5]; first compound 2 µM)	relative viability ([3]; first compound 0.6325 µM)
NCI-H2405	0.941	0.986	0.82	0.362	0.364	0.358	0.455	0.407	0.828	0.644	0.96	0.9	0.985	0.948	1	0.835	0.662	0.374	–
NCI-H2087	0.998	0.789	0.886	0.472	0.495	0.471	0.623	0.426	0.942	0.642	0.813	0.761	0.859	0.857	0.833	1.07	1.04	1.01	1.14
NCI-H2023	–	0.944	0.268	0.384	0.439	0.424	0.47	0.423	0.549	0.144	0.924	0.839	0.96	1.03	1.04	0.589	0.537	0.308	0.45
NCI-H3122	0.763	0.218	0.162	0.393	0.37	0.364	0.44	0.35	0.243	0.179	0.978	1.03	1.05	0.953	1	0.28	0.197	0.189	0.216
ChaGo-K-1	1.18	0.691	0.952	–	0.373	0.48	0.54	0.536	1.09	0.713	1.11	0.985	0.593	0.887	0.567	–	–	–	1.11
NCI-H2347	1.41	0.822	1.02	0.417	0.334	0.322	0.611	0.455	0.683	0.617	0.878	–	0.896	0.956	0.969	1.14	1.07	0.906	0.619
NCI-H460	1.77	1.2	0.593	0.281	0.57	0.503	0.695	0.29	1.16	0.247	1.02	0.992	1.1	1.09	0.98	0.607	0.412	0.113	0.831
HCC-827	–	0.988	1.05	0.376	0.455	0.358	0.46	0.422	0.914	0.868	1.06	1.02	1.04	0.795	0.495	1.05	1.05	0.822	0.907
HOP-62	0.678	0.725	0.758	0.4	0.764	0.633	0.788	0.523	–	0.823	0.624	0.667	0.847	0.918	0.663	1.16	0.891	0.946	0.997
NCI-H1792	0.779	0.967	0.819	–	–	0.286	0.697	0.388	1.06	0.954	0.994	0.926	0.914	0.865	0.887	0.647	0.718	0.684	0.966
HCC-15	0.916	1.07	1	0.427	0.437	0.455	0.579	0.401	0.806	0.319	1.03	0.962	0.956	1.08	1.08	0.865	0.933	0.678	0.792
NCI-H1755	–	0.949	0.838	0.617	0.641	0.621	0.695	0.607	0.991	0.681	0.998	1.04	1.07	1	0.959	0.692	1	0.771	0.893
NCI-H23	0.867	0.993	0.54	0.638	0.762	0.804	0.934	0.886	0.463	0.254	1	0.944	1.06	0.785	0.884	0.856	0.62	0.484	0.451
BEN	0.784	0.817	0.679	0.243	0.28	0.286	0.304	0.46	0.713	0.678	0.875	0.714	0.83	0.919	0.861	–	0.955	1.02	0.837
NCI-H1651	0.987	0.98	0.93	0.281	0.352	0.364	0.403	0.337	0.893	0.836	0.915	0.883	0.893	0.897	0.839	–	1.02	0.994	0.836
NCI-H2126	1.09	1.07	0.958	0.536	0.529	0.505	0.543	0.529	1.08	0.726	1.09	1.07	1.06	1.08	1.06	0.756	0.811	0.65	1.07
EKVX	0.98	0.926	0.587	0.245	0.239	0.243	0.273	0.23	0.775	0.582	1.09	0.998	1.03	0.796	0.666	0.936	0.781	0.63	0.859
NCI-H1650	0.194	0.183	0.173	0.375	0.335	0.523	0.402	0.377	0.899	1	0.253	0.21	–	0.209	0.195	–	–	–	0.89
NCI-H1703	0.315	0.275	0.129	–	–	–	–	–	0.743	0.144	0.379	–	0.374	0.31	0.245	0.401	0.334	0.21	0.516
NCI-H727	0.684	0.887	0.506	–	0.577	0.45	0.55	0.641	0.679	0.221	0.791	0.657	0.783	0.856	0.872	0.591	0.409	0.275	0.635
NCI-H838	0.86	0.902	0.399	0.326	0.573	0.527	0.717	0.39	0.962	0.522	0.73	0.807	0.664	0.706	0.614	1.06	0.97	0.537	0.78

Cell Line	relative viability ([1]; first compound 0.2 µM)	relative viability ([1]; first compound 0.6325 µM)	relative viability ([1]; first compound 2 µM)	relative viability ([2]; first compound 0.005 µM)	relative viability ([2]; first compound 0.01581 µM)	relative viability ([2]; first compound 0.05 µM)	relative viability ([2]; first compound 0.1581 µM)	relative viability ([2]; first compound 0.5 µM)	relative viability ([3]; first compound 0.2 µM)	relative viability ([3]; first compound 2 µM)	relative viability ([4]; first compound 0.02 µM)	relative viability ([4]; first compound 0.06325 µM)	relative viability ([4]; first compound 0.2 µM)	relative viability ([4]; first compound 0.6325 µM)	relative viability ([4]; first compound 2 µM)	relative viability ([5]; first compound 0.2 µM)	relative viability ([5]; first compound 0.6325 µM)	relative viability ([5]; first compound 2 µM)	relative viability ([3]; first compound 0.6325 µM)
NCI-H1944	–	–	–	0.159	0.227	0.206	0.234	0.203	1.07	0.933	–	–	–	–	–	0.786	0.797	0.691	1.03
SK-LU-1	1.21	1.08	1.01	0.323	0.593	0.529	0.608	0.475	0.972	0.412	1.23	1.01	1.21	1.39	0.467	1.1	0.863	0.4	0.81
LC-2-ad	1.13	0.9	0.605	0.575	0.507	0.541	0.598	0.611	0.419	0.315	0.708	0.984	0.769	0.884	0.322	0.813	0.801	0.232	0.433
LOU-NH91	0.548	0.492	0.518	0.677	0.702	0.597	0.687	0.685	0.7	0.592	0.514	0.47	0.535	0.504	0.504	0.68	0.623	0.532	0.725
NCI-H2009	0.977	0.897	0.645	0.466	0.477	0.476	0.508	0.437	1.07	0.788	0.895	0.931	1.06	0.996	1.21	1.11	1.14	0.927	0.968
NCI-H2170	–	–	–	0.396	0.405	0.446	0.417	0.384	1.31	0.996	–	–	–	–	–	0.702	0.789	0.672	1.15
NCI-H1395	–	–	–	0.422	0.378	0.415	0.449	0.418	–	–	–	–	–	–	–	1.2	1.19	0.739	–
EBC-1	0.515	0.544	0.341	–	–	–	–	–	0.208	0.155	0.635	0.559	0.647	0.577	0.505	0.772	0.824	0.559	0.174
NCI-H2342	–	–	–	0.495	0.591	0.674	0.606	0.614	–	–	–	–	–	–	–	–	–	–	–
SW 900	–	–	–	0.418	0.704	0.627	1.02	0.338	–	–	–	–	–	–	–	–	–	–	–
IA-LM	0.679	0.563	0.583	–	–	–	–	–	0.626	0.62	0.727	0.831	1.01	1.06	0.953	0.588	0.55	0.431	0.692
SK-MES-1	–	–	–	0.677	0.776	0.648	0.767	0.62	–	0.804	–	–	–	–	–	0.691	1	0.827	0.983
NCI-H522	–	–	–	0.649	0.642	0.61	0.691	0.588	–	–	–	–	–	–	–	–	–	–	–
NCI-H358	–	–	–	0.216	0.329	0.334	0.404	0.258	0.441	0.081	–	–	–	–	–	0.751	0.478	0.203	0.347
NCI-H1299	1.03	1.02	1.06	–	–	–	–	–	1.01	0.623	0.997	0.976	1.02	1.05	1.04	0.974	1.1	0.992	0.959
LK-2	–	–	–	0.392	0.289	0.396	0.58	0.33	0.228	0.203	–	–	–	–	–	0.846	1.07	0.574	0.223
NCI-H1623	–	–	–	0.62	0.582	0.567	0.617	0.579	–	–	–	–	–	–	–	–	–	–	–
NCI-H1793	–	–	–	0.382	0.369	0.328	0.454	0.355	–	–	–	–	–	–	–	0.78	0.637	0.436	–
A549	–	–	–	0.254	–	0.146	0.246	0.212	0.709	0.0727	–	–	–	–	–	0.823	0.58	0.253	0.458
Calu-6	0.875	0.918	0.435	–	–	–	–	–	0.73	0.285	1.15	0.933	1.09	0.959	0.941	0.854	0.912	0.517	0.687
